Experiment [1] addresses T1, GST-tagged Tankyrase-1 (1023-1327 aa) (Homo sapiens, UniProt O95271).
T1 construct: GST-tagged Tankyrase-1 (1023-1327 aa)
Briefly: Tankyrase 1 autoparsylation assay (HTRF enzyme assay). The class given is biochemical. The procedure:
Biochemical Activity Testing of Tankyrase 1 and 2: Autoparsylation Assay
The autoparsylation assay is run in two steps: the enzymatic reaction in which GST-tagged Tankyrase-1, resp Tankyrase-2 transferred biotinylated ADP-ribose to itself from biotinylated NAD as co-substrate and the detection reaction where a time resolved FRET between cryptate labelled anti-GST bound to the GST tag of the enzyme and Xlent® labelled-streptavidin bound the biotin-parsylation residue is analysed. The autoparsylation activity was detectable directly via the increase in HTRF signal.
The autoparsylation assay is performed as 384-well HTRF® (Cisbio, Codolet, France) assay format in Greiner low volume nb 384-well microtiter plates and is used for high throughput screen. 250 nM GST-tagged Tankyrase-1 (1023-1327 aa), respectively about 250 nM GST-tagged Tankyrase-2 (873-1166 aa) and 5 μM bio-NAD (Biolog, Life science Inst., Bremen, Germany) as co-substrate are incubated in a total volume of 5 μl (50 mM HEPES, 4 mM Mg-chloride, 0.05% Pluronic F-68, 1.4 mM DTT, 0.5% DMSO, pH 7.7) in the absence or presence of the test compound (10 dilution concentrations) for 90 min at 30° C. The reaction is stopped by the addition of 1 μl 50 mM EDTA solution. 2 μl of the detection solution (1.6 μM SA-Xlent® (Cisbio, Codolet, France), 7.4 nM Anti-GST-K® (Eu-labelled anti-GST, Cisbio, Codolet, France) in 50 mM HEPES, 800 mM KF, 0.1% BSA, 20 mM EDTA, 0.1% CHAPS, pH 7.0) are added. After 1 h incubation at room temperature the HTRF is measured with an Envision multimode reader (Perkin Elmer LAS Germany GmbH) at excitation wavelength 340 nm (laser mode) and emission wavelengths 615 nm and 665 nm. The ratio of the emission signals is determined. The full value used is the inhibitor-free reaction. The pharmacological zero value used is XAV-939 (Tocris) in a final concentration of 5 μM. The inhibitory values (IC50) are determined using either the program Symyx Assay Explorer® or Condosseo® from GeneData.
For orientation: Time-resolved FRET reads energy transfer from a long-lived donor to a nearby acceptor.

The target in another experiment is T2, His-tagged Parp-1 (Homo sapiens, UniProt P09874).
T2 construct: purchased Enzo Life Sciences GmbH, Lörrach, Germany
T2 sequence (P09874 whole entry): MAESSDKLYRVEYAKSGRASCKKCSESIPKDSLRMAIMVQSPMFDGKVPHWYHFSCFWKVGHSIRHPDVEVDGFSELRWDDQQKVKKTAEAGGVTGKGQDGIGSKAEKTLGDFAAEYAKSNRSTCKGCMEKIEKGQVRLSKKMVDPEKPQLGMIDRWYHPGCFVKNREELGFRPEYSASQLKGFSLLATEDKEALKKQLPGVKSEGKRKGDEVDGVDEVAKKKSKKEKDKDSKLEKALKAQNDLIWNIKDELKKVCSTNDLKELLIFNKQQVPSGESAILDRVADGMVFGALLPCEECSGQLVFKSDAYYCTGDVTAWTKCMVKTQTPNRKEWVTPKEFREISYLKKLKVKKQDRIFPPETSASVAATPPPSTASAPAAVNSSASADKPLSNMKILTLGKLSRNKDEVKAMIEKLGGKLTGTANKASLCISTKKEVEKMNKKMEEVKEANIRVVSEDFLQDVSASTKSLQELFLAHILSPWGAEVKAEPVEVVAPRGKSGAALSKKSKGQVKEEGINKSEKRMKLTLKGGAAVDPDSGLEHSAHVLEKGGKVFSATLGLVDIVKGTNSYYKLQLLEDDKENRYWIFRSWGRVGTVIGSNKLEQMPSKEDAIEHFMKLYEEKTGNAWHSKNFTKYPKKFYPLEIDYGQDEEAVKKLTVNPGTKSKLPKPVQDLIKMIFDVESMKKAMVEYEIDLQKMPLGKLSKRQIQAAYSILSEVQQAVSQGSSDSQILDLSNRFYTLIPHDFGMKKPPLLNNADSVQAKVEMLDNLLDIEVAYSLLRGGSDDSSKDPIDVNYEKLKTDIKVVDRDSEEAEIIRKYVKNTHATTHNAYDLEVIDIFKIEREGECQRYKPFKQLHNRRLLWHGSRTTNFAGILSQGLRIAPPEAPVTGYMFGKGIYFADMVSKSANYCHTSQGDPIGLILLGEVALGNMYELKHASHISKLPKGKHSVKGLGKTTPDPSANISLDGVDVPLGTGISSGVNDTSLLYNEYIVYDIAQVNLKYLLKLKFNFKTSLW
The experiment can be described thus: PARP-1 autoparsylation assay (HTRF). Type of experiment: biochemical. To be noted: PARP-1 autoparsylation HTRF assay. The source says:
Description of the PARP1 Assay
Biochemical Activity Testing of PARP-1: Autoparsylation Assay
The autoparsylation assay is run in two steps: the enzymatic reaction in which His-tagged Parp-1 transfers biotinylated ADP-ribose/ADP-ribose to itself from biotinylated NAD/NAD as co-substrate and the detection reaction where a time resolved FRET between cryptate labelled anti-His antibody bound to the His tag of the enzyme and Xlent® labelled-streptavidin bound the biotin-parsylation residue is analysed. The autoparsylation activity is detectable directly via the increase in HTRF signal.
The autoparsylation assay is performed as 384-well HTRF® (Cisbio, Codolet, France) assay format in Greiner low volume nb 384-well microtiter plates. 35 nM His-tagged Parp-1 (human, recombinant, Enzo Life Sciences GmbH, Lörrach, Germany) and a mixture of 125 nM bio-NAD (Biolog, Life science Inst., Bremen, Germany) and 800 nM NAD as co-substrate are incubated in a total volume of 6 μl (100 mM Tris/HCl, 4 mM Mg-chloride, 0.01% IGEPAL® CA630, 1 mM DTT, 0.5% DMSO, pH 8, 13 ng/μl activated DNA (BPS Bioscience, San Diego, US)) in the absence or presence of the test compound (10 dilution concentrations) for 150 min at 23° C. The reaction is stopped by the addition of 4 μl of the Stop/detection solution (70 nM SA-Xlent® (Cisbio, Codolet, France), 2.5 nM Anti-His-K® (Eu-labelled anti-His, Cisbio, Codolet, France) in 50 mM HEPES, 400 mM KF, 0.1% BSA, 20 mM EDTA, pH 7.0). After 1 h incubation at room temperature the HTRF is measured with an Envision multimode reader (Perkin Elmer LAS Germany GmbH) at excitation wavelength 340 nm (laser mode) and emission wavelengths 615 nm and 665 nm. The ratio of the emission signals is determined. The full value used is the inhibitor-free reaction. The pharmacological zero value used is Olaparib (LClabs, Woburn, US) in a final concentration of 1 μM. The inhibitory values (IC50) are determined using either the program Symyx Assay Explorer® or Condosseo® from GeneData.

Molecules are shown by their SMILES.

T1 sequence (O95271 1023-1327): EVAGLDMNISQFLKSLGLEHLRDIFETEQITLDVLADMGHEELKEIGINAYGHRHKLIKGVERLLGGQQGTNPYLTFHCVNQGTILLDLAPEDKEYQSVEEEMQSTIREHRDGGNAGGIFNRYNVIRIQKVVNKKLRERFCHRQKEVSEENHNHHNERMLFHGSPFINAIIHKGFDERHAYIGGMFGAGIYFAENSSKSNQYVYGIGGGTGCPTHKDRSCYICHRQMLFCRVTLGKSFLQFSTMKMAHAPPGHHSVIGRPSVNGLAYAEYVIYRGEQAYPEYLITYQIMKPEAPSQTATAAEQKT

Regarding `CC(C)(O)c1ccc(-c2nn3cccc3c(=O)[nH]2)cc1` [Compound A5, 2-[4-(1-hydroxy-1-methyl-ethyl)-phenyl]-3H-pyrrolo[2,1-f][1,2,4]triazin-4-one], the IC50 in experiment [1] was less than 0.3 µM; at His-tagged Parp-1, 3 to 50 µM.

As for `Cn1cc(-c2ccc(-c3nn4cccc4c(=O)[nH]3)cc2)cn1` [Compound A7, 2-[4-(1-methyl-1H-pyrazol-4-yl)-phenyl]-3H-pyrrolo[2,1-f][1,2,4]triazin-4-one], the IC50 was less than 0.3 µM in experiment [1] and 3 to 50 µM against His-tagged Parp-1.

With `Cc1cc2c(=O)[nH]c(-c3ccc(C(C)(C)O)cc3)nn2c1` [Compound A11, 2-[4-(1-hydroxy-1-methyl-ethyl)phenyl]-6-methyl-3H-pyrrolo[2,1-f][1,2,4]triazin-4-one], the IC50 is less than 0.3 µM in experiment [1] and 0.3 to 3 µM at His-tagged Parp-1.

For the compound `CC(C)(O)c1ccc(-c2nn3cc(F)cc3c(=O)[nH]2)cc1` [Compound A12, 6-fluoro-2-[4-(1-hydroxy-1-methyl-ethyl)phenyl]-3H-pyrrolo[2,1-f][1,2,4]triazin-4-one], the IC50 in experiment [1] was less than 0.3 µM; against His-tagged Parp-1, 0.3 to 3 µM.

Consider `Cc1cc2c(=O)[nH]c(-c3ccc(-c4cnn(C)c4)cc3)nn2c1` [Compound A13, 6-methyl-2-[4-(1-methylpyrazol-4-yl)phenyl]-3H-pyrrolo-[2,1-f][1,2,4]triazin-4-one], for which the IC50 in experiment [1] is less than 0.3 µM; at His-tagged Parp-1 it was 3 to 50 µM.

Turning to `CCC(O)(CC)c1ccc(-c2nn3cccc3c(=O)[nH]2)cc1` [Compound A14, 2-[4-(1-ethyl-1-hydroxy-propyl)-phenyl]-3H-pyrrolo[2,1-f][1,2,4]triazin-4-one], the IC50 in experiment [1] is less than 0.3 µM; at His-tagged Parp-1 it was 3 to 50 µM.

Consider `CC(C)(OCCO)c1ccc(-c2nn3cccc3c(=O)[nH]2)cc1` [Compound A15, 2-{4-[1-(2-hydroxy-ethoxy)-1-methyl-ethyl]-phenyl}-3H-pyrrolo[2,1-f][1,2,4]triazin-4-one], for which the 50% inhibitory concentration (IC50) in experiment [1] is less than 0.3 µM; against His-tagged Parp-1, 3 to 50 µM.

`CC(C)(O)c1ccc(-c2nn3cc(Cl)cc3c(=O)[nH]2)cc1` [Compound A18, 6-chloro-2-[4-(1-hydroxy-1-methyl-ethyl)-phenyl]-3H-pyrrolo[2,1-f][1,2,4]triazin-4-one]: the IC50 in experiment [1] is less than 0.3 µM; at His-tagged Parp-1 it was 3 to 50 µM.

`O=c1[nH]c(-c2ccc(C3(O)CCCC3)cc2)nn2cccc12` [Compound A21, 2-[4-(1-hydroxy-cyclopentyl)-phenyl]-3H-pyrrolo[2,1-f][1,2,4]-triazin-4-one]: the IC50 was less than 0.3 µM in experiment [1] and 3 to 50 µM against His-tagged Parp-1.

In general, IC50 refers to the concentration that inhibits the measured activity by half. Read a high IC50 as lower potency.
